The numbers were not newly measured in patent US20200237789A1, “COMBINATION THERAPY FOR PREVENTING ADDICTION” (Amygdala Neurosciences, Inc., priority 2017, published 2020), which cites them from elsewhere.

For one data set, the target named is T1, hMAO-A (Homo sapiens, UniProt P21397).
T1 sequence (P21397 1-527): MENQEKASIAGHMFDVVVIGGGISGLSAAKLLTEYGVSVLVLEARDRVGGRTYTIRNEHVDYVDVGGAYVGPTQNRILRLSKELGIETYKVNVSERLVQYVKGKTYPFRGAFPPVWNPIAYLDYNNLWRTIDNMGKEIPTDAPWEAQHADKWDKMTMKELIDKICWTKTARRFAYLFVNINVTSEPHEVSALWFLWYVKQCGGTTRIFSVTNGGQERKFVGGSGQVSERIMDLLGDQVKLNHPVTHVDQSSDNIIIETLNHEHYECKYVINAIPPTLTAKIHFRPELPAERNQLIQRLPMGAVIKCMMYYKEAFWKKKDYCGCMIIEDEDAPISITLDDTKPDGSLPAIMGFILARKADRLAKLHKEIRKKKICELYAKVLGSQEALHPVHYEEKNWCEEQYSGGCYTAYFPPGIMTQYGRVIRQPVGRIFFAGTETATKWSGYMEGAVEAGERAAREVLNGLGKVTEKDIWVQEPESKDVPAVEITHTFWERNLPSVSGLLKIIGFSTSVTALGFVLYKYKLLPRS
Particulars: read-out: IC50 hMAO-A.

The target of another data set is T2, hMAO-B (Homo sapiens, UniProt P27338).
T2 sequence (P27338 1-520): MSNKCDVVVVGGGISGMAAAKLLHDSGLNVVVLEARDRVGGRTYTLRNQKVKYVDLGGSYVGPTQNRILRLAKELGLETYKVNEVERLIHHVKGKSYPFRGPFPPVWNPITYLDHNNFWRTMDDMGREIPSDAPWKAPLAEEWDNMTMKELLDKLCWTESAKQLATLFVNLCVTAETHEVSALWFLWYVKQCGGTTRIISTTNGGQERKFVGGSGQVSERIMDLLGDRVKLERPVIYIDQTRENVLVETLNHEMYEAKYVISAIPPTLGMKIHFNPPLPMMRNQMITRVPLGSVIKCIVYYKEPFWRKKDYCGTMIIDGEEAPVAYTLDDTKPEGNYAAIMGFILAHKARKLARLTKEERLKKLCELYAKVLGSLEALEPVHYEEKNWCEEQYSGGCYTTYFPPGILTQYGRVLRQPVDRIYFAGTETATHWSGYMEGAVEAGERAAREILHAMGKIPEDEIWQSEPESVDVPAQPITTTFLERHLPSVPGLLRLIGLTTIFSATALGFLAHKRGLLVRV
Particulars: read-out: IC50 hMAO-B.

The next data set has as its target T3, human ALDH-2 enzyme (Homo sapiens, UniProt P05091).
T3 sequence (P05091 18-517): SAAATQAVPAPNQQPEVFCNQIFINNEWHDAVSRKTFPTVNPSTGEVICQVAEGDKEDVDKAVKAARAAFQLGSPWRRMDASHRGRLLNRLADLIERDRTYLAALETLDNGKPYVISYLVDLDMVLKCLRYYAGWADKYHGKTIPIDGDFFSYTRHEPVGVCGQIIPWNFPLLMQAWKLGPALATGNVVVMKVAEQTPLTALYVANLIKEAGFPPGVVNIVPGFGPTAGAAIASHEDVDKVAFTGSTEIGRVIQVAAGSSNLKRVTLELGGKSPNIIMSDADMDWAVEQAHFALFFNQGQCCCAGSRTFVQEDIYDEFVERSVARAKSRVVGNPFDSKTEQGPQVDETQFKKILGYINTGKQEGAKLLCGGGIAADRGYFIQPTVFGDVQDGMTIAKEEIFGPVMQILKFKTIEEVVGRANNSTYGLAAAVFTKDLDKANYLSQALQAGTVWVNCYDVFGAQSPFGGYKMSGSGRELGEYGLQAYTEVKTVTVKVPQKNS
Particulars: read-out: IC50 ALDH-2.

With `Cc1cc(CNC(=O)c2c(Cl)cccc2Cl)ccc1-c1cc[nH]c(=O)c1` [(9), 2,6-dichloro-N-(3-methyl-4-(2-oxo-1,2-dihydropyridin-4-yl)benzyl)benzamide], the IC50 at hMAO-A and on hMAO-B was more than 130 µM in each case.
With `O=C(NCc1ccc(-c2cc[nH]c(=O)c2)cc1F)c1c(Cl)cccc1Cl` [(13), 2,6-dichloro-N-(2-fluoro-4-(2-oxo-1,2-dihydropyridin-4-yl)benzyl)benzamide], the IC50 on hMAO-A and on hMAO-B was more than 130 µM each time.
As to `Cc1cccc(C)c1C(=O)NCc1ccc(-c2cc[nH]c(=O)c2)cc1` [(6), 2,6-dimethyl-N-(4-(2-oxo-1,2-dihydropyridin-4-yl)benzyl)benzamide], the IC50 at hMAO-A and at hMAO-B was more than 130 µM in each case.
For the compound `COCCOc1cc(Cl)c(C(=O)NCc2ccc(-c3cc[nH]c(=O)c3)cc2)c(Cl)c1` [(3), 2,6-dichloro-4-(2-methoxyethoxy)-N-(4-(2-oxo-1,2-dihydropyridin-4-yl)benzyl)benzamide], the IC50 on hMAO-A and at hMAO-B was more than 130 µM each time.
In the case of `Cc1cccc(Cl)c1C(=O)NCc1ccc(-c2cc[nH]c(=O)c2)cc1` [(5), 2-chloro-6-methyl-N-(4-(2-oxo-1,2-dihydropyridin-4-yl)benzyl)benzamide], the half-maximal inhibitory concentration (IC50) at hMAO-A and at hMAO-B was more than 130 µM each time.
For `Cn1ccc(-c2ccc(CNC(=O)c3c(Cl)cccc3Cl)cc2)cc1=O` [(10), 2,6-dichloro-N-(4-(1-methyl-2-oxo-1,2-dihydropyridin-4-yl)benzyl)benzamide], the IC50 on hMAO-A and on hMAO-B was more than 130 µM in each case.
On to `O=C(NCc1ccc(-c2cc(=O)[nH]cc2F)cc1)c1c(Cl)cccc1Cl` [(14), 2,6-dichloro-N-(4-(5-fluoro-2-oxo-1,2-dihydropyridin-4-yl)benzyl)benzamide], for which the IC50 on hMAO-A and at hMAO-B was more than 130 µM in each case.
On to `O=C(NCc1ccc(-c2cc[nH]c(=O)c2)cc1)c1c(F)cccc1F` [(11), 2,6-difluoro-N-(4-(2-oxo-1,2-dihydropyridin-4-yl)benzyl)benzamide], for which the IC50 at hMAO-A and on hMAO-B was more than 130 µM throughout.
As to `O=C(NCc1ccc(-c2ccn(COP(=O)(O)O)c(=O)c2)cc1)c1c(Cl)cccc1Cl` [compound (2), phosphoric acid mono-(4-{4-[(2,6-dichloro-benzoylamino)-methyl]-phenyl}-2-oxo-2H-pyridin-1-ylmethyl) ester], the IC50 (commonly the concentration at which inhibition is half-maximal) at human ALDH-2 enzyme was more than 10 µM; at hMAO-A it was more than 130 µM; at hMAO-B it was more than 130 µM.
In the case of `Cc1cc(-c2ccc(CNC(=O)c3c(Cl)cccc3Cl)cc2)cc(=O)[nH]1` [(7), 2,6-dichloro-N-[4-(6-methyl-2-oxo-1,2-dihydro-pyridin-4-yl)-benzyl]-benzamide], the IC50 at hMAO-A and on hMAO-B was more than 130 µM throughout.
For the compound `O=C(NCc1ccc(-c2cc[nH]c(=O)c2)cc1)c1c(Cl)cccc1Cl` [compound (1), 2,6-dichloro-N-[4-(2-oxo-1,2-dihydro-pyridin-4-yl)-benzyl]-benzamide], the IC50 at hMAO-A and on hMAO-B was more than 130 µM in each case.
As for `O=C(NCc1ccc(-c2cc[nH]c(=O)c2)cc1)c1c(F)ccc(F)c1Cl` [(8), 2-chloro-3,6-difluoro-N-(4-(2-oxo-1,2-dihydropyridin-4-yl)benzyl)benzamide], the IC50 at hMAO-A and on hMAO-B was more than 130 µM each time.
For the compound `O=C(NCc1ccc(-c2cc[nH]c(=O)c2)cc1)c1c(F)cccc1Cl` [(12), 2-chloro-6-fluoro-N-(4-(2-oxo-1,2-dihydropyridin-4-yl)benzyl)benzamide], the IC50 on hMAO-A and on hMAO-B was more than 130 µM in each case.
With `O=C(NCc1ccc(-c2cc[nH]c(=O)c2)cc1)c1cccc(F)c1Cl` [(4), 2-chloro-3-fluoro-N-(4-(2-oxo-1,2-dihydropyridin-4-yl)benzyl)benzamide], the IC50 on hMAO-A and on hMAO-B was more than 130 µM throughout.
